# Laboratory results reported in paper PMC10343472, “Cyclopentenylcytosine (CPE-C): In Vitro and In Vivo Evaluation as an Antiviral against Adenoviral Ocular Infections” (Molecules, 2023).
# Assay: signs of systemic toxicity in the rabbit studies after topical ocular administration
# Type: in vivo
# Details: topical ocular administration in the doses given
# Description: Like 2′,3′-dideoxycytidine (ddC; zalcitabine), the most important unresolved issue affecting the future commercial development of CPE-C is systemic safety. The untimely deaths reported in 1995 of two cancer patients treated with intravenous CPE-C [35] raises serious concerns for the treatment of a self-limited non-blinding ocular infection. […] Therefore, the challenge for a pharmaceutical company will be to generate convincing and reassuring systemic safety data following topical administration. Given the negative clinical history associated with this compound, a persuasive package of unambiguous data will be required to convince appropriate governmental regulatory agencies to grant approval for the proposed ocular indication for CPE-C as the first topical anti-adenoviral drug.
smiles,measurement,value
"Nc1ccn([C@@H]2C=C(CO)[C@@H](O)[C@H]2O)c(=O)n1 [CPE-C, Cyclopentenylcytosine]","signs of systemic toxicity (decreased appetite, weight loss, wasting, death)",no obvious signs of systemic toxicity
